Among the data in patent publication US20250215039A1, “NUCLEOSIDES FOR TREATING CANCER” (PRIMEFOUR THERAPEUTICS, INC., priority 2022, published 2025) are IC50 values, retold here.

The experiment concerns cancer cell lines. Kind of experiment: Cancer cell proliferation activity (CellTiterGlo, 72 h). It is filed as cell-based. The settings on record: 72 h, 72 h, read-out: IC50 cell proliferation. The procedure: Dose response relationships on cell proliferation was assessed for representative Compounds of the Disclosure on cancer cell lines. Briefly, compound treatment of cells started one day after seeding with a final DMSO concentration of 0.1%, and was performed by nanodrop-dispensing using a Tecan Dispenser. 0.1% DMSO (solvent) and Staurosporine (10 μM) served as high control (100% viability) and low control (0% viability), respectively.
Cells were cultured in the appropriate media. For the assays, cells were seeded in white cell culture-treated flat and clear bottom multiwell plates and incubated at 37° C. overnight before compound was added. After incubation for 72 h at 37° C. at 5% or 10% CO2 dependent on the medium, cell plates were equilibrated to room temperature for one hour, CellTiterGlo reagent (Promega) was added and luminescence was measured approximately an hour later using a luminometer.
Raw data were converted into percent cell viability relative to the high and low control, which were set to 100% and 0%, respectively.
The IC50 values are summarized in Tables 9A-1, Table 10A, and Table 10B.

Setting [1] is: Homo sapiens, A204, 72 h, A204 (muscle).
The mark [2] stands for this setting: Homo sapiens, ACHN, ACHN (kidney).
Setting [3] is: Homo sapiens, ASPC1, 72 h, ASPC1 (pancreas).
Setting [4] is: Homo sapiens, BXPC-3, 72 h, BXPC3 (pancreas).
[5] abbreviates: Homo sapiens, Caco-2, 72 h, CACO2 (colon).
Setting [6] is: Homo sapiens, Granta-519, 72 h, GRANTA-519 (hematological).
Setting [7] is: Homo sapiens, Kasumi 1, 72 h, KASUMI-1 (hematological).
The mark [8] stands for this setting: Homo sapiens, LoVo, LOVO (colon).
[9] abbreviates: Homo sapiens, MDA-MB-231, 72 h, MDAMB231 (breast).
[10] abbreviates: Homo sapiens, MDA-MB-436, 72 h, MDAMB436 (breast).
Setting [11] is: Homo sapiens, MINO, MINO (hematological).
Setting [12] is: Homo sapiens, SK-BR-3, 72 h, SKBR3 (breast).

SMILES strings stand for the structures. Read-outs that look alike come from different tables or passages of the source. Some results are limits rather than exact numbers.

Turning to `Nc1nc(F)nc2c1ncn2[C@H]1C[C@H](O)[C@](CO)(C2CC2)O1` [Cpd. No. 5, (2R,3S,5R)-5-(6-amino-2-fluoro-9H-purin-9-yl)-2-cyclopropyl-2-(hydroxymethyl)tetrahydrofuran-3-ol], the IC50 (5637 (bladder)) turned out to be 4.93 µM; the IC50 under setting [1] came out at 2.32 µM; the IC50 under setting [2] was 3.67 µM; the IC50 under setting [3] was found to be 2.62 µM; the IC50 under setting [4] was > 50 µM; the IC50 under setting [5] is 7.85 µM. Moreover, the IC50 was > 50 µM under setting [6]; 1.4 µM under setting [7]; 2.75 µM under setting [8]; > 50 µM under setting [9]; 2.9 µM under setting [10]; 1.75 µM under setting [11]. Also, the IC50 under setting [12] is 1.06 µM and the IC50 (NCI-H358M, NCIH358M (lung)) is 1.98 µM.
For the compound `N#C[C@]1(CO)O[C@@H](n2cc(F)c(=O)[nH]c2=O)C[C@@H]1O` [Cpd. No. 107, (2R,3S,5R)-5-(5-fluoro-2,4-dioxo-3,4-dihydropyrimidin-1(2H)-yl)-3-hydroxy-2-(hydroxymethyl)tetrahydrofuran-2-carbonitrile], the IC50 runs as follows: (5637 (bladder)) 2.22 µM; under setting [1], > 50 µM; under setting [2], 3.84 µM; under setting [3], 1.58 µM; under setting [4], 1 µM; under setting [5], > 50 µM. In addition, the IC50 reads like this: under setting [6], 1.86 µM; under setting [7], > 50 µM; under setting [8], > 50 µM; under setting [9], > 50 µM; under setting [10], > 50 µM; under setting [11], 2.34 µM. Also, the IC50 under setting [12] stood at 0.97 µM and the IC50 (NCI-H358M, NCIH358M (lung)) was > 50 µM.
Regarding `C#C[C@]1(CO)O[C@@H](n2cc(Cl)c(N)nc2=O)C[C@@H]1O` [Cpd. No. 109, 4-amino-5-chloro-1-((2R,4S,5R)-5-ethynyl-4-hydroxy-5-(hydroxymethyl)tetrahydrofuran-2-yl)pyrimidin-2(1H)-one], the IC50 reads like this: (5637 (bladder)) 0.01 µM; under setting [1], 4.02 µM; under setting [2], 1.26 µM; under setting [3], 2.93 µM; under setting [4], 0.5 µM; under setting [5], 3.28 µM. In addition, the IC50 runs as follows: under setting [6], 0.92 µM; under setting [7], 1.69 µM; under setting [8], 2.54 µM; under setting [9], 0.4 µM; under setting [10], 3.49 µM; under setting [11], 0.37 µM. Further, the IC50 reads like this: under setting [12], 0.98 µM; (NCI-H358M, NCIH358M (lung)) 0.01 µM.
As for `C[C@]1(CO)O[C@@H](n2cnc3c(O)nc(N)nc32)C[C@@H]1O` [Cpd. No. 115, 2-amino-9-((2R,4S,5R)-4-hydroxy-5-(hydroxymethyl)-5-methyltetrahydrofuran-2-yl)-9H-purin-6-ol], the IC50 (5637 (bladder)) is 7.01 µM; the IC50 under setting [1] stood at 0.63 µM; the IC50 under setting [2] was 2.81 µM; the IC50 under setting [3] was > 50 µM; the IC50 under setting [4] is > 50 µM; the IC50 under setting [5] was > 50 µM. The IC50 is, setting by setting: under setting [6], 2.22 µM; under setting [7], 2.13 µM; under setting [8], > 50 µM; under setting [9], 3.4 µM; under setting [10], 4.09 µM; under setting [11], 1.72 µM. Further, the IC50 is, setting by setting: under setting [12], 3.45 µM; (NCI-H358M, NCIH358M (lung)) 1.07 µM.
Consider `Nc1nc(F)nc2c1ncn2[C@H]1C[C@H](O)[C@](CO)(CC2CC2)O1` [Cpd. No. 130, (2R,3S,5R)-5-(6-amino-2-fluoro-9H-purin-9-yl)-2-(cyclopropylmethyl)-2-(hydroxymethyl)tetrahydrofuran-3-ol], for which the IC50 reads like this: (5637 (bladder)) 2.06 µM; under setting [1], 1.71 µM; under setting [2], 3.83 µM; under setting [3], 0.62 µM; under setting [4], 3.28 µM; under setting [5], 1.5 µM. The IC50 under setting [6] was 5.22 µM; the IC50 under setting [7] turned out to be 0.21 µM; the IC50 under setting [8] is 0.49 µM; the IC50 under setting [9] is > 50 µM; the IC50 under setting [10] is 0.53 µM; the IC50 under setting [11] is 0.3 µM. Moreover, the IC50 stood at 0.12 µM under setting [12] and 0.93 µM (NCI-H358M, NCIH358M (lung)).
In the case of `CC[C@]1(CO)O[C@@H](n2cnc3c(O)nc(N)nc32)C[C@@H]1O` [Cpd. No. 223, 2-amino-9-((2R,4S,5R)-5-ethyl-4-hydroxy-5-(hydroxymethyl)tetrahydrofuran-2-yl)-9H-purin-6-ol], the IC50 by setting is: (5637 (bladder)) > 50 µM; under setting [1], 1.83 µM; under setting [2], > 50 µM; under setting [3], > 50 µM; under setting [4], > 50 µM; under setting [5], > 50 µM. The IC50 runs as follows: under setting [6], 1.4 µM; under setting [7], 1.46 µM; under setting [8], > 50 µM; under setting [9], 6.28 µM; under setting [10], > 50 µM; under setting [11], 2.7 µM. The IC50 reads like this: under setting [12], > 50 µM; (NCI-H358M, NCIH358M (lung)) 2.96 µM.
In the case of `C#C[C@]1(CO)O[C@@H](n2cnc3c(=O)[nH]c(N)nc32)[C@H](F)[C@@H]1O` [compound 95, 2-amino-9-((2R,3R,4R,5R)-5-ethynyl-3-fluoro-4-hydroxy-5-(hydroxymethyl)tetrahydrofuran-2-yl)-1,9-dihydro-6H-purin-6-one], the IC50 is 3.9 µM (5637 (bladder)); 1.35 µM under setting [1]; > 50 µM under setting [2]; 4.62 µM under setting [3]; > 50 µM under setting [4]; > 50 µM under setting [5]. Also, the IC50 under setting [6] was determined as 4.44 µM; the IC50 under setting [7] was found to be 1.63 µM; the IC50 under setting [8] was > 50 µM; the IC50 under setting [9] stood at 1.69 µM; the IC50 under setting [10] came out at 3.85 µM; the IC50 under setting [11] came out at 2.54 µM. In addition, the IC50 is > 50 µM under setting [12] and 1.59 µM (NCI-H358M, NCIH358M (lung)).
`O=c1[nH]c(=O)n([C@H]2C[C@H](O)[C@@H](CO)O2)cc1F` [compound 185, 5-fluoro-1-((2R,4S,5R)-4-hydroxy-5-(hydroxymethyl)tetrahydrofuran-2-yl)pyrimidine-2,4(1H,3H)-dione]: the IC50 is, setting by setting: (5637 (bladder)) 0.001 µM; under setting [1], 0.077 µM; under setting [2], 0.004 µM; under setting [3], 0.005 µM; under setting [4], 0.002 µM; under setting [5], 0.116 µM. For the same compound, the IC50 is, setting by setting: under setting [6], 0.002 µM; under setting [7], 0.024 µM; under setting [8], 0.007 µM; under setting [9], 0.076 µM; under setting [10], 0.006 µM; under setting [11], 0.004 µM. The IC50 reads like this: under setting [12], 0.001 µM; (NCI-H358M, NCIH358M (lung)) 0.012 µM.
